Key:
Test in all cases: cells
COR-L88 = type: functional, cell-based; conditions: Homo sapiens;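 note: growth inhibition of COR-L88 cells, read out with a cell viability assay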
Description: SANGER: Inhibition of human COR-L88 cell growth in a cell viability assay.

Ca9-22 = type: functional, cell-based, Homo sapiens; conditions: Homo sapiens, Ca9-22;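 note: growth inhibition of Ca9-22 cells, read out with a cell viability assay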
Description: SANGER: Inhibition of human Ca9-22 cell growth in a cell viability assay.

D-542MG = type: functional, cell-based, Homo sapiens; conditions: Homo sapiens, D-542MG
Description: SANGER: Inhibition of human D-542MG cell growth in a cell viability assay.

EFO-27 = type: functional, cell-based, Homo sapiens; conditions: Homo sapiens, EFO-27;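 note: growth inhibition of EFO-27 cells, read out with a cell viability assay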
Description: SANGER: Inhibition of human EFO-27 cell growth in a cell viability assay.

EM-2 = type: functional, cell-based; conditions: Homo sapiens;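 note: growth inhibition of EM-2 cells, read out with a cell viability assay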
Description: SANGER: Inhibition of human EM-2 cell growth in a cell viability assay.

ES7 = type: functional, cell-based, Homo sapiens; conditions: Homo sapiens, ES7;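 note: growth inhibition of cultured human ES7 cells, read out as cell viability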
Description: SANGER: Inhibition of human ES7 cell growth in a cell viability assay.

FaDu = type: functional, cell-based, Homo sapiens; conditions: Homo sapiens, FaDu;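 note: cell viability readout of growth inhibition in FaDu cells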
Description: SANGER: Inhibition of human FADU cell growth in a cell viability assay.

GR-ST = type: functional, cell-based; conditions: Homo sapiens
Description: SANGER: Inhibition of human GR-ST cell growth in a cell viability assay.

HSC-2 = type: functional, cell-based, Homo sapiens; conditions: Homo sapiens, HSC-2;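 note: growth inhibition of human HSC-2 cells, read out by a cell viability assay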
Description: SANGER: Inhibition of human HSC-2 cell growth in a cell viability assay.

HTC-C3 = type: functional, cell-based, Homo sapiens; conditions: Homo sapiens, HTC-C3;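 note: inhibition of cell growth, read out with a cell viability assay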
Description: SANGER: Inhibition of human HTC-C3 cell growth in a cell viability assay.

HuCCT-1 = type: functional, cell-based, Homo sapiens, HuCCT1; conditions: Homo sapiens, HuCCT-1;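 note: growth inhibition of HuCCT-1 cells, read out by a cell viability assay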
Description: SANGER: Inhibition of human HuCCT1 cell growth in a cell viability assay.

KLE = type: functional, cell-based, Homo sapiens; conditions: Homo sapiens, KLE;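 note: growth inhibition of human KLE cells, read out with a cell viability assay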
Description: SANGER: Inhibition of human KLE cell growth in a cell viability assay.

KM12 = type: functional, cell-based, Homo sapiens; conditions: Homo sapiens, KM12;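 note: KM12 cell growth inhibition, read out with a cell viability assay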
Description: SANGER: Inhibition of human KM12 cell growth in a cell viability assay.

KNS-42 = type: functional, cell-based, Homo sapiens; conditions: Homo sapiens, KNS-42;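 note: growth inhibition of KNS-42 cells, read out with a cell viability assay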
Description: SANGER: Inhibition of human KNS-42 cell growth in a cell viability assay.

KP-4 = type: functional, cell-based, Homo sapiens; conditions: Homo sapiens, KP-4; read-out: IC50;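 note: human KP-4 cells, with growth inhibition read out through a cell viability assay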
Description: SANGER: Inhibition of human KP-4 cell growth in a cell viability assay.

KP-N-YS = type: functional, cell-based; conditions: Homo sapiens;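 note: cell viability assay measuring inhibition of cell line growth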
Description: SANGER: Inhibition of human KP-N-YS cell growth in a cell viability assay.

KYSE-180 = type: functional, cell-based, Homo sapiens; conditions: Homo sapiens, KYSE-180;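 note: growth inhibition of KYSE-180 cells, read out with a cell viability assay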
Description: SANGER: Inhibition of human KYSE-180 cell growth in a cell viability assay.

LB996-RCC = type: functional, cell-based; conditions: Homo sapiens
Description: SANGER: Inhibition of human LB996-RCC cell growth in a cell viability assay.

LCLC-103H cell line = type: functional, cell-based, Homo sapiens; conditions: Homo sapiens, LCLC-103H
Description: SANGER: Inhibition of human LCLC-103H cell growth in a cell viability assay.

M059J = type: functional, cell-based, Homo sapiens; conditions: Homo sapiens, M059J;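 note: growth inhibition of M059J cells, read out with a cell viability assay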
Description: SANGER: Inhibition of human M059J cell growth in a cell viability assay.

MDA-MB-175-VII = type: functional, cell-based, Homo sapiens; conditions: Homo sapiens, MDA-MB-175-VII
MDA-MB-361 = type: functional, cell-based, Homo sapiens; conditions: Homo sapiens, MDA-MB-361
MDA-MB-415 = type: functional, cell-based; conditions: Homo sapiens
MKN-7 = type: functional, cell-based, Homo sapiens; conditions: Homo sapiens, MKN-7;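 note: growth inhibition of MKN-7 cells, read out with a cell viability assay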
Description: SANGER: Inhibition of human MKN7 cell growth in a cell viability assay.

MSTO-211H = type: functional, cell-based, Homo sapiens; conditions: Homo sapiens, MSTO-211H
Description: SANGER: Inhibition of human MSTO-211H cell growth in a cell viability assay.

NCI-H1437 = type: functional, cell-based, Homo sapiens; conditions: Homo sapiens, NCI-H1437;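 note: growth inhibition of human NCI-H1437 cells, read out by a cell viability assay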
Description: SANGER: Inhibition of human NCI-H1437 cell growth in a cell viability assay.

NCI-H1563 = type: functional, cell-based, Homo sapiens; conditions: Homo sapiens, NCI-H1563;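 note: growth inhibition of human NCI-H1563 cells, read out with a cell viability assay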
Description: SANGER: Inhibition of human NCI-H1563 cell growth in a cell viability assay.

NCI-H358 = type: functional, cell-based, Homo sapiens; conditions: Homo sapiens, NCI-H358;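 note: growth inhibition of NCI-H358 human cells, read out with a cell viability assay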
Description: SANGER: Inhibition of human NCI-H358 cell growth in a cell viability assay.

NMC-G1 = type: functional, cell-based, Homo sapiens; conditions: Homo sapiens, NMC-G1;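 note: growth inhibition of the NMC-G1 cell line, measured with a cell viability read-out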
Description: SANGER: Inhibition of human NMC-G1 cell growth in a cell viability assay.

NOS-1 = type: functional, cell-based, Homo sapiens; conditions: Homo sapiens, NOS-1;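 note: growth inhibition of the human NOS-1 cell line, read out with a cell viability assay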
Description: SANGER: Inhibition of human NOS-1 cell growth in a cell viability assay.

OAW-28 = type: functional, cell-based, Homo sapiens; conditions: Homo sapiens, OAW-28;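 note: growth inhibition of OAW-28 cells, read out with a cell viability assay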
Description: SANGER: Inhibition of human OAW-28 cell growth in a cell viability assay.

PFSK-1 = type: functional, cell-based, Homo sapiens; conditions: Homo sapiens, PFSK-1;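 note: cell viability assay measuring how strongly compounds suppress growth of human PFSK-1 cells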
Description: SANGER: Inhibition of human PFSK-1 cell growth in a cell viability assay.

RPMI-2650 = type: functional, cell-based, Homo sapiens; conditions: Homo sapiens, RPMI-2650
Description: SANGER: Inhibition of human RPMI-2650 cell growth in a cell viability assay.

Ramos-2G6-4C10 = type: functional, cell-based; conditions: Homo sapiens;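 note: growth inhibition of the cell line, measured by a cell viability read-out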
Description: SANGER: Inhibition of human Ramos-2G6-4C10 cell growth in a cell viability assay.

SK-HEP1 = type: functional, cell-based, Homo sapiens, SK-HEP-1; conditions: Homo sapiens, SK-HEP1;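 note: cell viability readout used to quantify reduction in proliferation of human SK-HEP-1 cells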
Description: SANGER: Inhibition of human SK-HEP-1 cell growth in a cell viability assay.

SK-MEL-30 = type: functional, cell-based; conditions: Homo sapiens;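 note: growth inhibition of SK-MEL-30 cells, determined with a cell viability assay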
Description: SANGER: Inhibition of human SK-MEL-30 cell growth in a cell viability assay.

SNU-C2B = type: functional, cell-based, Homo sapiens; conditions: Homo sapiens, SNU-C2B;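 note: cell viability readout used to measure compound-driven suppression of SNU-C2B cell proliferation, IC50 marking half-maximal growth inhibition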
Description: SANGER: Inhibition of human SNU-C2B cell growth in a cell viability assay.

SW982 = type: functional, cell-based; conditions: Homo sapiens;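 note: growth inhibition of SW982 cells, read out with a cell viability assay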
Description: SANGER: Inhibition of human SW982 cell growth in a cell viability assay.

8-MG-BA = type: functional, cell-based, Homo sapiens; conditions: Homo sapiens, 8-MG-BA;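 note: growth inhibition of 8-MG-BA cells, read out with a cell viability assay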
Description: SANGER: Inhibition of human 8-MG-BA cell growth in a cell viability assay.

8505C = type: functional, cell-based, Homo sapiens; conditions: Homo sapiens, 8505C
Description: SANGER: Inhibition of human 8505C cell growth in a cell viability assay.

A204 = type: functional, cell-based, Homo sapiens; conditions: Homo sapiens, A204;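 note: growth inhibition of human A204 cells, read out with a cell viability assay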
Description: SANGER: Inhibition of human A204 cell growth in a cell viability assay.

ACHN = type: functional, cell-based, Homo sapiens; conditions: Homo sapiens, ACHN;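 note: cell viability read-out used to gauge how strongly growth of human ACHN cells is suppressed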
Description: SANGER: Inhibition of human ACHN cell growth in a cell viability assay.

BHY = type: functional, cell-based, Homo sapiens; conditions: Homo sapiens, BHY;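 note: cell growth inhibition read out by a viability assay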
CAKI-1 = type: functional, cell-based, Homo sapiens; conditions: Homo sapiens, CAKI-1;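 note: growth inhibition of CAKI-1 cells, measured by a cell viability assay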
Description: SANGER: Inhibition of human CAKI-1 cell growth in a cell viability assay.

TE-11 = type: functional, cell-based, Homo sapiens; conditions: Homo sapiens, TE-11;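 note: growth inhibition of human TE-11 cells, read out by a cell viability assay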
Description: SANGER: Inhibition of human TE-11 cell growth in a cell viability assay.

TE-12 = type: functional, cell-based; conditions: Homo sapiens;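 note: growth inhibition of TE-12 cells, read out by a cell viability assay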
Description: SANGER: Inhibition of human TE-12 cell growth in a cell viability assay.

WM-115 = type: functional, cell-based, Homo sapiens; conditions: Homo sapiens, WM-115
Description: SANGER: Inhibition of human WM-115 cell growth in a cell viability assay.

COLO-678 = type: functional, cell-based, Homo sapiens; conditions: Homo sapiens, COLO-678
Description: SANGER: Inhibition of human COLO-678 cell growth in a cell viability assay.

COLO-680N = type: functional, cell-based, Homo sapiens; conditions: Homo sapiens, COLO-680N;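 note: cell viability assay used to measure inhibition of COLO-680N cell growth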
Description: SANGER: Inhibition of human COLO-680N cell growth in a cell viability assay.

C[C@]1(O)C[C@@H](c2nc(-c3ccc4ccc(-c5ccccc5)nc4c3)c3c(N)nccn32)C1 [LINSITINIB]
IC50 (COR-L88): > 2560 nM
IC50 (Ca9-22): > 2560 nM
IC50 (D-542MG): > 2560 nM
IC50 (EFO-27): > 2560 nM
IC50 (EM-2): > 2560 nM
IC50 (ES7): > 2560 nM
IC50 (FaDu): > 2560 nM
IC50 (GR-ST): > 2560 nM
IC50 (HSC-2): > 2560 nM
IC50 (HTC-C3): > 2560 nM
IC50 (HuCCT-1): > 2560 nM
IC50 (KLE): > 2560 nM
IC50 (KM12): > 2560 nM
IC50 (KNS-42): > 2560 nM
IC50 (KP-4): > 2560 nM
IC50 (KP-N-YS): > 2560 nM
IC50 (KYSE-180): > 2560 nM
IC50 (LB996-RCC): > 2560 nM
IC50 (LCLC-103H cell line): > 2560 nM
IC50 (M059J): > 2560 nM
IC50 (MDA-MB-175-VII): > 2560 nM
IC50 (MDA-MB-361): > 2560 nM
IC50 (MDA-MB-415): > 2560 nM
IC50 (MKN-7): > 2560 nM
IC50 (MSTO-211H): > 2560 nM
IC50 (NCI-H1437): > 2560 nM
IC50 (NCI-H1563): > 2560 nM
IC50 (NCI-H358): 671 nM
IC50 (NMC-G1): > 2560 nM
IC50 (NOS-1): 523 nM
IC50 (OAW-28): > 2560 nM
IC50 (PFSK-1): > 2560 nM
IC50 (RPMI-2650): > 2560 nM
IC50 (Ramos-2G6-4C10): > 2560 nM
IC50 (SK-HEP1): > 2560 nM
IC50 (SK-MEL-30): > 2560 nM
IC50 (SNU-C2B): > 2560 nM
IC50 (SW982): > 2560 nM
IC50 (8-MG-BA): > 2560 nM
IC50 (8505C): > 2560 nM
IC50 (A204): > 2560 nM
IC50 (ACHN): > 2560 nM
IC50 (BHY): > 2560 nM
IC50 (CAKI-1): > 2560 nM
IC50 (TE-11): 78.2 nM
IC50 (TE-12): 765 nM
IC50 (WM-115): > 2560 nM
IC50 (COLO-678): > 2560 nM
IC50 (COLO-680N): > 2560 nM

Cc1ccc(Nc2nccc(N(C)c3ccc4c(C)n(C)nc4c3)n2)cc1S(N)(=O)=O [PAZOPANIB]
IC50 (COR-L88): > 8000 nM
IC50 (Ca9-22): > 8000 nM
IC50 (D-542MG): > 8000 nM
IC50 (EFO-27): > 8000 nM
IC50 (EM-2): > 8000 nM
IC50 (ES7): > 8000 nM
IC50 (FaDu): > 8000 nM
IC50 (GR-ST): > 8000 nM
IC50 (HSC-2): > 8000 nM
IC50 (HTC-C3): > 8000 nM
IC50 (HuCCT-1): > 8000 nM
IC50 (KLE): > 8000 nM
IC50 (KM12): > 8000 nM
IC50 (KNS-42): > 8000 nM
IC50 (KP-4): > 8000 nM
IC50 (KP-N-YS): > 8000 nM
IC50 (KYSE-180): > 8000 nM
IC50 (LB996-RCC): > 8000 nM
IC50 (LCLC-103H cell line): 1450 nM
IC50 (M059J): > 8000 nM
IC50 (MDA-MB-175-VII): > 8000 nM
IC50 (MDA-MB-361): > 8000 nM
IC50 (MDA-MB-415): > 8000 nM
IC50 (MKN-7): > 8000 nM
IC50 (MSTO-211H): > 8000 nM
IC50 (NCI-H1437): > 8000 nM
IC50 (NCI-H1563): > 8000 nM
IC50 (NCI-H358): > 8000 nM
IC50 (NMC-G1): 6550 nM
IC50 (NOS-1): 660 nM
IC50 (OAW-28): > 8000 nM
IC50 (PFSK-1): > 8000 nM
IC50 (RPMI-2650): > 8000 nM
IC50 (Ramos-2G6-4C10): > 8000 nM
IC50 (SK-HEP1): > 8000 nM
IC50 (SK-MEL-30): > 8000 nM
IC50 (SNU-C2B): > 8000 nM
IC50 (SW982): > 8000 nM
IC50 (8-MG-BA): > 8000 nM
IC50 (8505C): > 8000 nM
IC50 (A204): 109 nM
IC50 (ACHN): > 8000 nM
IC50 (BHY): > 8000 nM
IC50 (CAKI-1): > 8000 nM
IC50 (TE-11): > 8000 nM
IC50 (TE-12): > 8000 nM
IC50 (WM-115): 5760 nM
IC50 (COLO-678): > 8000 nM
IC50 (COLO-680N): > 8000 nM

From ChEMBL document CHEMBL1201861, “Genomics of Drug Sensitity in Cancer screening data, Wellcome Trust Sanger Institute”
